# Laboratory results as given in patent US10456407B2, “Combination therapy for treating cancer” (Epizyme, Inc., priority 2015, dated 2019).
# Where “and” joins values, the source holds several entries; their conditions need not be identical. Equal entries are not always repeated.
# Tested on: DOHH2 cells
# Assay: RT2 Glucocorticoid signaling PCR array, DOHH2 cell line (Table 4b)
# Type: cell-based
# Details: DOHH2, 4 days
structure (smiles),measurement,setting,value
CCN(c1cc(-c2ccc(CN3CCOCC3)cc2)cc(C(=O)NCc2c(C)cc(C)[nH]c2=O)c1C)C1CCOCC1 [Compound 44],ACTB Ct Values,,14.519
same,ADARB1 Ct Values,,31.431
same,AFF1 Ct Values,,23.888
same,AK2 Ct Values,,20.173
same,AMPD3 Ct Values,,26.146
same,ANGPTL4 Ct Values,,30.820
same,ANXA4 Ct Values,,24.273
same,ARID68 Ct Values,,23.782
same,ASPH Ct Values,,22.823
same,ATF4 Ct Values,,19.190
same,B2M Ct Values,,18.576
same,BCL6 Ct Values,,21.323
same,BMPER Ct Values,,39.092
same,CALCR Ct Values,,33.360
same,CEBPA Ct Values,,30.676
same,CEBPB Ct Values,,23.925
same,COL4A2 Ct Values,,34.119
same,CREB1 Ct Values,,22.746
same,CREB3 Ct Values,,24.840
same,CREB3L4 Ct Values,,24.110
same,CTGF Ct Values,,32.760
same,CYB561 Ct Values,,31.945
same,DDIT4 Ct Values,,23.508
same,DUSP1 Ct Values,,27.132
same,EDN1 Ct Values,,32.260
same,EHD3 Ct Values,,28.852
same,ERRFI1 Ct Values,,30.163
same,FK8PS Ct Values,,21.520
same,FOSL2 Ct Values,,29.872
same,GAPDH Ct Values,,16.197
same,GDPD1 Ct Values,,27.570
same,GHRHR Ct Values,,39.644
same,GLUL Ct Values,,36.671
same,GOT1 Ct Values,,23.126
same,H6PD Ct Values,,24.377
same,HNRPLL Ct Values,,29.151
same,HPRT1 Ct Values,,21.561
same,IL1RN Ct Values,,32.271
same,IL6R Ct Values,,31.962
same,KLF9 Ct Values,,28.439
same,KLF13 Ct Values,,22.420
same,LOX Ct Values,,32.997
same,MERTK Ct Values,,32.456
same,NFKBIA Ct Values,,22.625
same,NR3C1 Ct Values,,22.430
same,PDCD7 Ct Values,,23.417
same,PDGFRB Ct Values,,35.193
same,PDP1 Ct Values,,25.175
same,PER1 Ct Values,,24.717
same,PER2 Ct Values,,23.835
same,PIK3R1 Ct Values,,23.712
same,PLEKHF1 Ct Values,,28.946
same,POU2F1 Ct Values,,24.003
same,POU2F2 Ct Values,,22.167
same,RASA3 Ct Values,,27.636
same,RGS2 Ct Values,,24.861
same,RHOB Ct Values,,30.745
same,RPLP0 Ct Values,,14.935
same,SESN1 Ct Values,,23.848
same,SGK1 Ct Values,,27.821
same,SLC10A6 Ct Values,,36.435
same,SLC19A2 Ct Values,,24.859
same,SLC22A5 Ct Values,,27.992
same,SNTA1 Ct Values,,24.550
same,SPHK1 Ct Values,,28.863
same,SPSB1 Ct Values,,26.652
same,STAT5A Ct Values,,23.771
same,STAT5B Ct Values,,22.328
same,TBL1XR1 Ct Values,,20.994
same,TNF Ct Values,,31.849
same,TNFAIP3 Ct Values,,27.520
same,TSC22D3 Ct Values,,24.752
same,USP2 Ct Values,,23.684
same,USPS4 Ct Values,,25.892
same,VDR Ct Values,,26.426
same,VLDLR Ct Values,,27.232
same,ZFP36 Ct Values,,23.980
same,ZHX3 Ct Values,,24.611
same,ZNF281 Ct Values,,23.541
same,PPC Ct Values,"array control, three lines",18.672 and 19.142 and 18.711
same,RTC Ct Values,"array control, three lines",21.345 and 21.410 and 21.384
same,ACTB ΔCT (B2M),normalized to B2M,−4.057
same,ADARB1 ΔCT (B2M),normalized to B2M,12.855
same,AFF1 ΔCT (B2M),normalized to B2M,5.312
same,AK2 ΔCT (B2M),normalized to B2M,1.597
same,AMPD3 ΔCT (B2M),normalized to B2M,7.570
same,ANGPTL4 ΔCT (B2M),normalized to B2M,12.244
same,ANXA4 ΔCT (B2M),normalized to B2M,5.697
same,ASPH ΔCT (B2M),normalized to B2M,4.247
same,ATF4 ΔCT (B2M),normalized to B2M,0.614
same,B2M ΔCT (B2M),normalized to B2M,0.000
same,BCL6 ΔCT (B2M),normalized to B2M,2.747
same,BMPER ΔCT (B2M),normalized to B2M,20.516
same,CALCR ΔCT (B2M),normalized to B2M,15.054
same,CEBPA ΔCT (B2M),normalized to B2M,12.100
same,CEBPB ΔCT (B2M),normalized to B2M,5.349
same,COL4A2 ΔCT (B2M),normalized to B2M,15.543
same,CREB1 ΔCT (B2M),normalized to B2M,4.170
same,CREB3L4 ΔCT (B2M),normalized to B2M,5.534
same,CREB3 ΔCT (B2M),normalized to B2M,6.264
same,CTGF ΔCT (B2M),normalized to B2M,14.184
same,CYB561 ΔCT (B2M),normalized to B2M,13.369
same,DDIT4 ΔCT (B2M),normalized to B2M,4.932
same,DUSP1 ΔCT (B2M),normalized to B2M,8.556
same,EDN1 ΔCT (B2M),normalized to B2M,13.684
same,EHD3 ΔCT (B2M),normalized to B2M,10.276
same,ERRFI1 ΔCT (B2M),normalized to B2M,11.587
same,FK8PS ΔCT (B2M),normalized to B2M,2.944
same,FOSL2 ΔCT (B2M),normalized to B2M,11.296
same,GAPDH ΔCT (B2M),normalized to B2M,−2.379
same,GDPD1 ΔCT (B2M),normalized to B2M,8.994
same,GHRHR ΔCT (B2M),normalized to B2M,21.068
same,GLUL ΔCT (B2M),normalized to B2M,18.095
same,GOT1 ΔCT (B2M),normalized to B2M,4.550
same,H6PD ΔCT (B2M),normalized to B2M,5.801
same,HNRPLL ΔCT (B2M),normalized to B2M,10.575
same,HPRT1 ΔCT (B2M),normalized to B2M,2.985
same,IL1RN ΔCT (B2M),normalized to B2M,13.695
same,IL6R ΔCT (B2M),normalized to B2M,13.386
same,IL6 ΔCT (B2M),normalized to B2M,15.874
same,KLF9 ΔCT (B2M),normalized to B2M,9.863
same,KLF13 ΔCT (B2M),normalized to B2M,3.844
same,LOX ΔCT (B2M),normalized to B2M,14.421
same,MERTK ΔCT (B2M),normalized to B2M,13.880
same,NFKBIA ΔCT (B2M),normalized to B2M,4.049
same,NR3C1 ΔCT (B2M),normalized to B2M,3.854
same,PDCD7 ΔCT (B2M),normalized to B2M,4.841
same,PDGFRB ΔCT (B2M),normalized to B2M,16.617
same,PDP1 ΔCT (B2M),normalized to B2M,6.599
same,PER1 ΔCT (B2M),normalized to B2M,6.141
same,PER2 ΔCT (B2M),normalized to B2M,5.259
same,PIK3R1 ΔCT (B2M),normalized to B2M,5.136
same,PLEKHF1 ΔCT (B2M),normalized to B2M,10.370
same,POU2F1 ΔCT (B2M),normalized to B2M,5.427
same,POU2F2 ΔCT (B2M),normalized to B2M,3.591
same,RASA3 ΔCT (B2M),normalized to B2M,9.060
same,RGS2 ΔCT (B2M),normalized to B2M,6.285
same,RHOB ΔCT (B2M),normalized to B2M,12.169
same,RPLP0 ΔCT (B2M),normalized to B2M,−3.641
same,SESN1 ΔCT (B2M),normalized to B2M,5.272
same,SGK1 ΔCT (B2M),normalized to B2M,9.245
same,SLC10A6 ΔCT (B2M),normalized to B2M,17.859
same,SLC19A2 ΔCT (B2M),normalized to B2M,6.283
same,SLC22A5 ΔCT (B2M),normalized to B2M,9.416
same,SNTA1 ΔCT (B2M),normalized to B2M,5.974
same,SPHK1 ΔCT (B2M),normalized to B2M,10.287
same,SPSB1 ΔCT (B2M),normalized to B2M,8.076
same,STAT5A ΔCT (B2M),normalized to B2M,5.195
same,STAT5B ΔCT (B2M),normalized to B2M,3.752
same,TBL1XR1 ΔCT (B2M),normalized to B2M,2.415
same,TNF ΔCT (B2M),normalized to B2M,13.273
same,TNFAIP3 ΔCT (B2M),normalized to B2M,8.944
same,TSC22D3 ΔCT (B2M),normalized to B2M,6.176
same,USP2 ΔCT (B2M),normalized to B2M,5.108
same,USPS4 ΔCT (B2M),normalized to B2M,7.316
same,VDR ΔCT (B2M),normalized to B2M,7.850
same,VLDLR ΔCT (B2M),normalized to B2M,8.656
same,ZFP36 ΔCT (B2M),normalized to B2M,5.404
same,ZHX3 ΔCT (B2M),normalized to B2M,6.035
same,ZNF281 ΔCT (B2M),normalized to B2M,4.965
same,RTC ΔCT (B2M),"normalized to B2M, array control, three lines",2.769 and 2.834 and 2.808
same,ADARB1 ΔΔCT,vs DMSO,0.046
same,AFF1 ΔΔCT,vs DMSO,−0.363
same,AK2 ΔΔCT,vs DMSO,0.272
same,AMPD3 ΔΔCT,vs DMSO,0.178
same,ANGPTL4 ΔΔCT,vs DMSO,0.119
same,ANXA4 ΔΔCT,vs DMSO,−0.111
same,ARID68 ΔΔCT,vs DMSO,0.334
same,ASPH ΔΔCT,vs DMSO,0.286
same,ATF4 ΔΔCT,vs DMSO,0.467
same,BCL6 ΔΔCT,vs DMSO,0.227
same,BMPER ΔΔCT,vs DMSO,1.488
same,CEBPA ΔΔCT,vs DMSO,−3.545
same,CEBPB ΔΔCT,vs DMSO,0.447
same,COL4A2 ΔΔCT,vs DMSO,2.238
same,CREB1 ΔΔCT,vs DMSO,0.249
same,CREB3L4 ΔΔCT,vs DMSO,0.138
same,CREB3 ΔΔCT,vs DMSO,0.344
same,CTGF ΔΔCT,vs DMSO,−0.518
same,CYB561 ΔΔCT,vs DMSO,−5.412
same,DDIT4 ΔΔCT,vs DMSO,0.007
same,DUSP1 ΔΔCT,vs DMSO,−0.039
same,EDN1 ΔΔCT,vs DMSO,1.460
same,EHD3 ΔΔCT,vs DMSO,−3.030
same,ERRFI1 ΔΔCT,vs DMSO,−1.929
same,FK8PS ΔΔCT,vs DMSO,−3.032
same,FOSL2 ΔΔCT,vs DMSO,−1.462
same,GDPD1 ΔΔCT,vs DMSO,0.471
same,GHRHR ΔΔCT,vs DMSO,2.393
same,GLUL ΔΔCT,vs DMSO,0.971
same,GOT1 ΔΔCT,vs DMSO,0.132
same,H6PD ΔΔCT,vs DMSO,0.093
same,HNRPLL ΔΔCT,vs DMSO,−0.740
same,KLF9 ΔΔCT,vs DMSO,0.181
same,KLF13 ΔΔCT,vs DMSO,−0.098
same,LOX ΔΔCT,vs DMSO,−0.132
same,MERTK ΔΔCT,vs DMSO,−0.108
same,NFKBIA ΔΔCT,vs DMSO,0.167
same,NR3C1 ΔΔCT,vs DMSO,0.261
same,PDCD7 ΔΔCT,vs DMSO,0.194
same,PDP1 ΔΔCT,vs DMSO,−0.255
same,PER1 ΔΔCT,vs DMSO,0.206
same,PER2 ΔΔCT,vs DMSO,−0.374
same,PIK3R1 ΔΔCT,vs DMSO,−0.032
same,PLEKHF1 ΔΔCT,vs DMSO,−0.507
same,POU2F1 ΔΔCT,vs DMSO,0.058
same,POU2F2 ΔΔCT,vs DMSO,0.131
same,RASA3 ΔΔCT,vs DMSO,0.917
same,RGS2 ΔΔCT,vs DMSO,0.504
same,RHOB ΔΔCT,vs DMSO,−1.483
same,SESN1 ΔΔCT,vs DMSO,0.055
same,SGK1 ΔΔCT,vs DMSO,0.621
same,SLC19A2 ΔΔCT,vs DMSO,−0.308
same,SLC22A5 ΔΔCT,vs DMSO,0.033
same,SNTA1 ΔΔCT,vs DMSO,0.399
same,SPHK1 ΔΔCT,vs DMSO,−1.381
same,SPSB1 ΔΔCT,vs DMSO,0.025
same,STAT5A ΔΔCT,vs DMSO,−0.033
same,STAT5B ΔΔCT,vs DMSO,0.258
same,TBL1XR1 ΔΔCT,vs DMSO,0.030
same,TNF ΔΔCT,vs DMSO,0.954
same,TNFAIP3 ΔΔCT,vs DMSO,−0.307
same,TSC22D3 ΔΔCT,vs DMSO,0.009
same,USP2 ΔΔCT,vs DMSO,0.013
same,USPS4 ΔΔCT,vs DMSO,−0.274
same,VDR ΔΔCT,vs DMSO,−0.547
same,VLDLR ΔΔCT,vs DMSO,0.499
same,ZFP36 ΔΔCT,vs DMSO,0.243
same,ZHX3 ΔΔCT,vs DMSO,−0.156
same,ZNF281 ΔΔCT,vs DMSO,−0.092
